Data on 1 compound can be found in patent US20080033026A1, “Antimicrobial compositions, methods and systems” (priority 2006, published 2008).

Common to all, as to assay type: cell-based
The test system of assay [1] is Candida albicans (ATCC 10231). Description: MIC and MBC determination (broth dilution). On the procedure:
(§1) The determination of the MIC and MBC of 9-decenoic acid conformed to the procedure printed in the Federal Register, June 1994 and the present NCCLS M11-A4 protocol. Challenge organisms were prepared as follows. The MIC and MBC of 9-decenoic acid and the methyl ester of 9-decenoic acid were determined for the following challenge organisms: Staphylococcus aureus (ATCC 6538), Pseudomonas aeruginosa (ATCC 15442), Staphylococcus epidermidis (ATCC 12228), Klebsiella pneumoniae (ATCC 4352), Escherichia coli 0157:H7 (ATCC 43895) and Candida albicans (ATCC 10231). Stock cultures of each organism were transferred onto suitable culture media, Mueller-Hinton Agar (MHA) plates, and incubated for 24 hours (+2 hours) at 37° C. (+2° C.). On the day of the test, the top of at least three to five well-isolated colonies were transferred via wire loop to a tube containing 4 to 5 ml of Trypticase Soy Broth (TSB). The TSB culture was incubated for 2 to 6 hours and turbidity was adjusted with sterile saline to achieve the turbidity of a McFarland 0.5 Standard.
(§2) The concentrated 9-decenoic acid (97%) was diluted in Mueller-Hinton Broth (MHB) to yield a 25,000 ppm stock solution of the 9-decenoic acid. For each organism, 12 dilutions of the 9-decenoic acid in MHB were prepared ranging from 0.25% to 0.00049%. The test solution of the methyl ester of 9-decenoic acid was formulated in the same manner.
(§3) A 2-ml aliquot of appropriately diluted 9-decenoic acid solution or methyl ester of 9-decenoic acid was placed in each tube. Each tube was inoculated with 0.05 ml of a 1:10 dilution of one challenge organism. Tubes were incubated at 37° C. (±2° C.) for 20-24 hours and observed for microbial growth visually and by spectrophotometer. […] (±2° C.) for 20-24 hours and visually observed for growth.
(§4) Controls were run for sterility, viability and organism confirmation. It was determined that all cultures were viable and pure.
(§5) The MBC was defined as the concentration of 9-decenoic acid or the methyl ester of 9-decenoic acid that completely eradicated viable organisms from the test system.
(In general: Dilution methods test growth across graded concentrations, often in twofold steps.)

For assay [2], the system named is Klebsiella pneumoniae (ATCC 4352). In words: MIC and MBC determination (broth dilution). The conditions noted are these: Mueller-Hinton Broth, 20-24 h, 37° C. How it is done: as §1, §2, §3, §4, §5
Assay [3] has as its system Escherichia coli 0157:H7 (ATCC 43895). Description: MIC and MBC determination (broth dilution). On the procedure:
as §1, §2, §3, §4, §5

Assay [4] concerns Pseudomonas aeruginosa (ATCC 15442). In words: MIC and MBC determination (broth dilution). The conditions noted are these: Mueller-Hinton Broth, 20-24 h, 37° C. On the procedure:
as §1, §2, §3, §4, §5

Assay [5] relates to Staphylococcus epidermidis (ATCC 12228). Description: MIC and MBC determination (broth dilution). The conditions noted are these: subculture on TSA. On the procedure: as §1, §2, §3, §4, §5
Assay [6] concerns all organisms. Description: Time kill test, all organisms of Example 2. The conditions noted are these: even after 10 minutes, all concentrations (0.01, 0.05 and 0.1%). How it is done:
The assessment of efficacy of 9-decenoic acid against a spectrum of microorganisms was determined using the American Society for Testing and Materials (ASTM) procedure entitled “Standard Test Method for the Assessment of Microbiocidal Activity of Test Materials Using a Time-Kill Procedure,” October 1998. This procedure incorporates the recommendations described in the “Manual of Clinical Microbiology,” 5th ed., edited by A. B. Balows et al., ASM, Washington, and is directed by the Federal Register, June 1994.
Challenge organisms were prepared as follows. Cultures of the following organisms were obtained: Staphylococcus aureus (ATCC 6538), Pseudomonas aeruginosa (ATCC 15442), Staphylococcus epidermidis (ATCC 12228), Klebsiella pneumoniae (ATCC 4352), Escherichia coli 0157:H7 (ATCC 43895) and Candida albicans (ATCC 10231). The stock cultures were transferred to sterile tubes and sterile tryptic soy broth (TSB) was added to the cultures. […]
Concentrated 9-decenoic acid (97%) was diluted in filter sterilized isopropanol to yield a 25,000 ppm stock solution. […] The pH was determined for each dilution; pH values ranged from 4.4-4.1. […]
At each exposure sample time, a 1.0 ml aliquot of the inoculated 9-decenoic acid suspension was transferred to 9.0 ml of D/E Neutralizing Broth. […] The plates were enumerated, recorded and log kill determined for each time point. […]

Where [7] appears, read: Mueller-Hinton Broth, 20-24 h, 37° C.

Turning to `C=CCCCCCCCC(=O)OC` [Methyl ester of 9-decenoic acid, methyl ester of 9-decenoic acid], the MIC in assay [1] (setting [7]) came to 0.0156%; in assay [2], 0.0625%; in assay [3] (setting [7]), 0.125%; in assay [4], 0.0625%. Moreover, the MBC is recorded as 0.0156% in assay [1] (subculture on TSA), 0.125% in assay [3] (subculture on TSA) and 0.25% in assay [5]. Besides, the log reduction in assay [6] is reported as under 1 log.
